Here are results for five compounds from patent US6225322A, “Compounds useful for inhibition of farnesyl protein transferase” (Schering Corporation, priority 1998, dated 2001).

Molecules are shown by their SMILES. pIC50: −log10 of the molar value. Bounds are passed on as bounds.

The subject of one experiment is COS Cell. In words: COS Cell IC50 (Cell-Based Assay). Here is the method:
(§1) FPT IC50 (inhibition of farnesyl protein transferase, in vitro enzyme assay) and COS Cell IC50 (Cell-Based Assay) were determined following the assay procedures described in WO 95/10516, published Apr. 20, 1995. GGPT IC50 (inhibition of geranylgeranyl protein transferase, in vitro enzyme assay), Cell Mat Assay, and anti-tumor activity (in vivo anti-tumor studies) could be determined by the assay procedures described in WO 95/10516. The disclosure of WO 95/10516 is incorporated herein by reference thereto.
As for `O=C(Cc1cc[n+]([O-])cc1)N1CCC(C2c3ncc(Br)cc3CCc3cc(Br)cnc32)CC1` [Example 13, 4-(3,8-dibromo-6,11-dihydro-5H-cyclohepta [2,1-b:4,5-b']dipyridin-11-yl)-1-(4-pyridinylacetyl) n1-oxide piperidine], the pIC50 (usually −log10 of the IC50, conventionally taken in molar units) is 6.90.

Another experiment addresses farnesyl protein transferase (Homo sapiens, UniProt P49354+P49356). Kind of experiment: FPT IC50 (inhibition of farnesyl protein transferase, in vitro enzyme assay). Type of experiment: biochemical. On the procedure: as §1
As for `CCOC(=O)N1CCC(C2c3ncccc3CCc3cccnc32)CC1` [Example 6, ethyl 4-(6,11-dihydro-5H-cyclohepta[2,1-b:4,5-b']dipyridin-11-yl)-1-piperidinecarboxylate], the pIC50 was below 4.77.
Same read-out and setting: in the case of `O=C(Cc1cc[n+]([O-])cc1)N1CCC(C2c3ncc(Br)cc3CCc3cc(Br)cnc32)CC1` [Example 13, 4-(3,8-dibromo-6,11-dihydro-5H-cyclohepta [2,1-b:4,5-b']dipyridin-11-yl)-1-(4-pyridinylacetyl) n1-oxide piperidine] it was 7.55; in that of `Cc1cnc2c(c1)CCc1cccnc1C2C1CCN(C(=O)Cc2cc[n+]([O-])cc2)CC1` (stereo not drawn) [Example 18, 4-(3-methyl-6,11-dihydro-5H-cyclohepta [2,1-b:4,5-b']dipyridin-11-yl)-1-(4-pyridinylacetyl) n1-oxide piperidine], 6.80; in that of `O=C(Cc1cc[n+]([O-])cc1)N1CCC(C2c3ncccc3CCc3cccnc32)CC1` [Example 8, 4-(6,11-dihydro-5H-cyclohepta[2,1-b: 4,5-b']dipyridin-11-yl)-1-(4-pyridinylacetyl) n1-oxide piperidine], below 5.85.
Still for that read-out and setting: in the case of `O=C(Cc1cc[n+]([O-])cc1)N1CCC(C2c3ncccc3CCc3cc(Br)cnc32)CC1` (stereo not drawn) [Example 17, 4-(3-bromo-6,11-dihydro-5H-cyclohepta [2,1-b:4,5-b']dipyridin-11-yl)-1-(4-pyridinylacetyl) n1-oxide piperidine] it was 6.54.
